Reference: PMC8876135, “The Catestatin-Derived Peptides Are New Actors to Fight the Development of Oral Candidosis” (International Journal of Molecular Sciences, 2022)
≈ marks a conversion by molar mass, not a printed value. Residues, ends and D or L forms follow the SMILES beside them.

What was measured:
Candida albicans “R” = format: cell-based; conditions: 24 h, pH 5.6
Procedure: (§1) Strains of Candida albicans, Candida tropicalis and Candida glabrata, frequently found in cases of oral candidosis, were tested for L-bCtl and D-bCtl antimicrobial activity. The sensitive strain of C. albicans (ATCC 10231^TM) was provided by ATCC (Manassas, VA, USA). The resistant strain of C. albicans, the sensitive and resistant strains of C. tropicalis as well as the sensitive and resistant strains of C. glabrata were kindly provided by Dr Valérie Letscher-Bru (Laboratory of Parasitolology and Medical Mycology, Strasbourg, France).
(§2) Each Candida strain was first plated on agar plates and cultured for 24 h at 37 °C. After incubation, one colony per isolate was transferred into 5 mL of Sabouraud medium pH 5.6 (Sigma-Aldrich, Le Pont-de-Claix, France) supplemented with tetracycline (10 μg/mL) and cefotaxime (10 μg/mL) and incubated aerobically under agitation at 37 °C for 24 h. The resulting cultures were resuspended at an absorbance of 0.001 (OD600nm = 0.001) in Sabouraud medium. The OD600nm was evaluated with a spectrophotometer (BIO-RAD Smatspec^TM plus, Schiltigheim, France). In preliminary experiments, we tested RPMI-1640 culture and Sabouraud media. Similar data were obtained but the experiments were more reproducible with Sabouraud than with RPMI1640. Therefore, Sabouraud medium was used in the present study.
(§3) The yeasts (OD600nm = 0.001) were then plated on 96-well microplates and treated with different concentrations of the peptides of interest. After 24 h incubation at 37 °C under agitation, yeast growth was assessed by optical density (OD600nm) using a microplate spectrophotometer (Multiscan EX, Thermo Fisher Scientific, Waltham, MA, USA). All tests were performed in triplicate. The MIC (minimal inhibitory concentration), defined as the lowest concentration of drug able to inhibit 100% of the growth of a pathogen, was determined for the different peptides against all previously described Candida strains, using a modified Gompertz model.

[1] = tested on: Candida albicans “S” (ATCC 10231); format: cell-based; conditions: ATCC 10231, 24 h, pH 5.6
Procedure: as §1, §2, §3

Candida glabrata “S” = format: cell-based; conditions: 24 h, pH 5.6
Procedure: as §1, §2, §3

Candida glabrata “R” = format: cell-based; conditions: 24 h, pH 5.6
Procedure: as §1, §2, §3

Candida tropicalis “S” = format: cell-based; conditions: 24 h, pH 5.6
Procedure: as §1, §2, §3

Candida tropicalis “R” = format: cell-based; conditions: 24 h, pH 5.6
Procedure: as §1, §2, §3

C. albicans = conditions: 24 h, 4 µM
Procedure: as §2, with “Similar data were obtained but the experiments were more reproducible with Sabouraud than with RPMI1640.” left out
The yeasts (OD600nm = 0.001) were then plated on 96-well microplates and treated with different concentrations of the peptides of interest. After 24 h incubation at 37 °C under agitation, yeast growth was assessed by optical density (OD600nm) using a microplate spectrophotometer (Multiscan EX, Thermo Fisher Scientific, Waltham, MA, USA). All tests were performed in triplicate.
The same method was used to evaluate the MICs of peptide/bovine serum albumin combinations (BSA).

[2] = cited from earlier work
Excerpt: Host-defense peptides (HDPs) have emerged as new attractive candidates in the development of new antimicrobial agents. In addition, HDPs have been proven to be potent immune effectors via the orchestration of immune responses.

Row | SMILES | MIC C. albicans “R” (Candida albicans “R”) [µg/mL] | MIC C. albicans “S” [1] [µg/mL] | MIC Candida glabrata “S” (Candida glabrata “S”) [µg/mL] | MIC Candida glabrata “R” (Candida glabrata “R”) [µg/mL] | MIC Candida tropicalis “S” (Candida tropicalis “S”) [µg/mL] | MIC Candida tropicalis “R” (Candida tropicalis “R”) [µg/mL] | inhibition (C. albicans) | stability to bacterial degradation [2]
1 | CSCC[C@H](NC(=O)[C@H](CO)NC(=O)[C@@H](N)CCCNC(=N)N)C(=O)N[C@@H](CCCNC(=N)N)C(=O)N[C@@H](CC(C)C)C(=O)N[C@@H](CO)C(=O)N[C@@H](Cc1ccccc1)C(=O)N[C@@H](CCCNC(=N)N)C(=O)N[C@@H](C)C(=O)N[C@@H](CCCNC(=N)N)C(=O)NCC(=O)N[C@@H](Cc1ccc(O)cc1)C(=O)NCC(=O)N[C@@H](Cc1ccccc1)C(=O)N[C@@H](CCCNC(=N)N)C(=O)NCC(=O)N1CCC[C@H]1C(=O)NCC(=O)N[C@@H](CC(C)C)C(=O)N[C@@H](CCC(N)=O)C(=O)N[C@@H](CC(C)C)C(=O)O [bCts] (H-RSMRLSFRARGYGFRGPGLQL-OH) | 50 (≈ 20.6 µM) | 30 (≈ 12.4 µM) | >100 | >100 | 50 (≈ 20.6 µM) | 20 (≈ 8.24 µM) | more than 90% | –
2 | CSCC[C@H](NC(=O)[C@H](CO)NC(=O)[C@@H](N)CCCNC(=N)N)C(=O)N[C@@H](CCCNC(=N)N)C(=O)N[C@@H](CC(C)C)C(=O)N[C@@H](CO)C(=O)N[C@@H](Cc1ccccc1)C(=O)N[C@@H](CCCNC(=N)N)C(=O)N[C@@H](C)C(=O)N[C@@H](CCCNC(=N)N)C(=O)NCC(=O)N[C@@H](Cc1ccc(O)cc1)C(=O)NCC(=O)N[C@@H](Cc1ccccc1)C(=O)N[C@@H](CCCNC(=N)N)C(=O)O [bCtl] (H-RSMRLSFRARGYGFR-OH) | 9.6 (≈ 5.16 µM) | – | 38.2 (≈ 20.5 µM) | 61.4 (≈ 33 µM) | 9.8 (≈ 5.27 µM) | 2.0 (≈ 1.08 µM) | – | resists bacterial degradation
